For the experiment, the target named is T1, α5β1 integrin (Homo sapiens, UniProt P05556+P08648).
T1 construct: gene ITGA5; soluble human α5β1-integrin (R&D); with integrin α5 (ITGA5, P08648)
The experiment is described as follows: competitive ELISA-like solid-phase binding assay against immobilized fibronectin.

`C[C@H](CCC(=O)NCCS(=O)(=O)O)[C@H]1CC[C@H]2[C@@H]3[C@@H](O)C[C@@H]4C[C@H](O)CC[C@]4(C)[C@H]3CC[C@]12C` [TUDC]: the IC50 turned out to be 4.01 mM. That is a millimolar value.
The molecule `C[C@H](CC(=O)O)[C@H]1CC[C@H]2[C@@H]3C(O)C[C@@H]4C[C@H](O)CC[C@]4(C)[C@H]3CC[C@]12C` (some centres unmarked) [norUDCA] displayed an IC50 of 3.93 mM.

What is called IC50 is the point on the concentration scale where inhibition reaches its midpoint.
